This note sets out measurements from US11655235B2, “Pyrrolidine and piperidine compounds” (YUHAN CORPORATION, priority 2019, dated 2023).

What all share (format): biochemical
One experiment has as its target T1, recombinant human DPP7 (Homo sapiens, UniProt Q9UHL4).
T1 construct: purchased R&D Systems
The experiment is described as follows: DPP7 inhibition, fluorogenic substrate Lys-Pro-AMC. As to the method: (§1) The compounds according to the present technology were evaluated in terms of the inhibitory effect on the activity of dipeptidyl peptidases including FAP by using a substrate producing fluorescent substances upon enzymatic decomposition. The test was conducted at 25° C. to get a final reaction volume of 100 μL in a 96 black well plate. […] Briefly, the test compounds were dissolved in dimethyl sulfoxide (DMSO) at a concentration of 20 mM and then subjected to serial dilution, thereby creating an 8 point curve. As for the control group, a 6 point curve created by serial dilution of Talabostat in the same buffer solution was used. Fluorescence intensity was measured using a microplate reader (Flexstation3, Molecular Devices) under the wavelength condition exciting at 380 nm and reading the emission at 460 nm. The inhibitory effect of the test compounds was measured as a decrease (%) in the signal rate as compared to the control group without any inhibitor. Data was fixed to a logistic model with four variables and IC50 value was calculated using GraphPad Prism program. As for recombinant human DPP4 (R&D Systems), 25 mM tris (pH 8.0) buffer as a buffer solution and H-Gly-Pro-AMC (Bachem) as a substrate were used. As for recombinant human DPP7 (R&D Systems), 25 mM MES (pH 6.0) buffer as a buffer solution and Lys-Pro-AMC (Bachem) as a substrate were used. As for recombinant human DPP8 (PBS Bioscience), as a buffer solution, a 10 mM tris (pH 7.4) buffer comprising 10 mM of magnesium chloride and 0.05% of Tween 20, and Z-Ala-Pro-AMC (BPS Bioscience) as a substrate were used. As for recombinant human DPP9 (R&D Systems), a 25 mM tris (pH 8.0) buffer as a buffer solution and H-Gly-Pro-AMC (Bachem) as a substrate were used. As for recombinant human PREP (R&D System), as a buffer solution, a 25 mM tris (pH 7.5) buffer comprising 250 mM sodium chloride and 2.5 mM DTT (Dithiolthreitol), and Z-Gly-Pro-AMC (Bachem) as a substrate were used. The evaluation was made by using 10 ng of DPP4, PDD7, and PREP, 20 ng of DPP8, and 50 ng of DPP9 based on the final reaction. In the evaluation of DPP4, the test compounds were subjected to serial dilution in a buffer under the condition containing up to 0.1% of DMSO. In the evaluation of DPP7, DPP8, DPP9, and PREP, the test compounds were subjected to serial dilution in each buffer under the condition containing up to 0.5% of DMSO.

For a further experiment, the target named is T2, Recombinant human FAP (Homo sapiens, UniProt Q12884).
T2 construct: purchased R&D systems
T2 sequence (Q12884 1-760): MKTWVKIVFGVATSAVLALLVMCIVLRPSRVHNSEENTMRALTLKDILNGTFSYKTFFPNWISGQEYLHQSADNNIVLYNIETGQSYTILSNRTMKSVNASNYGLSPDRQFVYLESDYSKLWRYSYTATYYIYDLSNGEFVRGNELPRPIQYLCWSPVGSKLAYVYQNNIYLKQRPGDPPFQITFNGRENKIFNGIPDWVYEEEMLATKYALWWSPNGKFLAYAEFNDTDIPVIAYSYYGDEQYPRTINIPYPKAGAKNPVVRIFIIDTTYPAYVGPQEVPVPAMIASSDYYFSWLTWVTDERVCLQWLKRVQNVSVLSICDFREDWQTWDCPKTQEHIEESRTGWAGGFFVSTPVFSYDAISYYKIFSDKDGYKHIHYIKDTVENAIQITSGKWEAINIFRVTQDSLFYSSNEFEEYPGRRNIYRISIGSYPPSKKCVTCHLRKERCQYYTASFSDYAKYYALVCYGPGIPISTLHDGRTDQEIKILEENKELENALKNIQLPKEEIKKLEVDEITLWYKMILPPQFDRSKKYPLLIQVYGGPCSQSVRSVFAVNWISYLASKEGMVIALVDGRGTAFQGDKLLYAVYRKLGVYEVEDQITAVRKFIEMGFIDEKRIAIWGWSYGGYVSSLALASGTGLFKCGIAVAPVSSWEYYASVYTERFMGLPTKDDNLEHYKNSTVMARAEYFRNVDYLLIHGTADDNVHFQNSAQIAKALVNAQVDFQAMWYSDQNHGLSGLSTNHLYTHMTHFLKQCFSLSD
As to the kind of experiment: FAP inhibition, fluorogenic substrate Z-Gly-Pro-AMC. Summed up: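 Eight-point compound dilutions (≤0.1% DMSO) were incubated at 25° C with 10 ng recombinant human FAP in Tris pH 7.5/1 M NaCl/BSA buffer and Z-Gly-Pro-AMC. Inhibition was taken as % drop in fluorescence rate (380/460 nm) against uninhibited control; IC50 came from a four-parameter logistic fit.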

The target in the next experiment is DPP4 (Homo sapiens, UniProt P27487). As to the kind of experiment: DPP4 inhibition, fluorogenic substrate H-Gly-Pro-AMC. Set-up: purchased R&D Systems.
For the next experiment, the target named is T3, recombinant human DPP9 (Homo sapiens, UniProt Q86TI2).
T3 construct: purchased R&D Systems
The experiment is described as follows: DPP9 inhibition, fluorogenic substrate H-Gly-Pro-AMC. Conditions: at 1 μM. As to the method: as §1

The mark [1] stands for this setting: 25° C., Z-Gly-Pro-AMC substrate.
Where [2] appears, read: 25° C., H-Gly-Pro-AMC substrate.
Where [3] appears, read: recombinant human FAP, substrate Z-Gly-Pro-AMC.

Structures are written as SMILES. Where two headings read alike, the source gives them in different places. Bounds are passed on as bounds.

Sequence of DPP4 (P27487 whole entry): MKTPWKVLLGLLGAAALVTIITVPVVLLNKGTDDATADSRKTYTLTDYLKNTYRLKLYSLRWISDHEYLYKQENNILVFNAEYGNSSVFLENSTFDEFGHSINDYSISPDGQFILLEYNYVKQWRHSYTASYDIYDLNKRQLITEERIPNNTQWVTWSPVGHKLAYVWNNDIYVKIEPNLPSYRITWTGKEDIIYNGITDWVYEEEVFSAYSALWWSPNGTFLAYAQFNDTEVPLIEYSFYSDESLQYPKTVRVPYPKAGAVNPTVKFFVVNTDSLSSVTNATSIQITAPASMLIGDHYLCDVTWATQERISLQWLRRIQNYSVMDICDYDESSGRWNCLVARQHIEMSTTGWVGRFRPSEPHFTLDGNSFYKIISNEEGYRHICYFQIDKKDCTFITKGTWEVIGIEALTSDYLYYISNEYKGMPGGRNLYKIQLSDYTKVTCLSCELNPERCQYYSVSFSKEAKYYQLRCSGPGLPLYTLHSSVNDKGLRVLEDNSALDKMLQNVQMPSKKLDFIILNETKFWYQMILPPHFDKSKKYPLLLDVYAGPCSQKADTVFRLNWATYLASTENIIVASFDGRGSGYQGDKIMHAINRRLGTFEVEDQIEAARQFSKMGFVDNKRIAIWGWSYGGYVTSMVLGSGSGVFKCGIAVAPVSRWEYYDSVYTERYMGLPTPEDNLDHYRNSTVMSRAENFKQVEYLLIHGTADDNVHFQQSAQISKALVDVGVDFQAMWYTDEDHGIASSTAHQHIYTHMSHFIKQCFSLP
T3 sequence (Q86TI2 whole entry): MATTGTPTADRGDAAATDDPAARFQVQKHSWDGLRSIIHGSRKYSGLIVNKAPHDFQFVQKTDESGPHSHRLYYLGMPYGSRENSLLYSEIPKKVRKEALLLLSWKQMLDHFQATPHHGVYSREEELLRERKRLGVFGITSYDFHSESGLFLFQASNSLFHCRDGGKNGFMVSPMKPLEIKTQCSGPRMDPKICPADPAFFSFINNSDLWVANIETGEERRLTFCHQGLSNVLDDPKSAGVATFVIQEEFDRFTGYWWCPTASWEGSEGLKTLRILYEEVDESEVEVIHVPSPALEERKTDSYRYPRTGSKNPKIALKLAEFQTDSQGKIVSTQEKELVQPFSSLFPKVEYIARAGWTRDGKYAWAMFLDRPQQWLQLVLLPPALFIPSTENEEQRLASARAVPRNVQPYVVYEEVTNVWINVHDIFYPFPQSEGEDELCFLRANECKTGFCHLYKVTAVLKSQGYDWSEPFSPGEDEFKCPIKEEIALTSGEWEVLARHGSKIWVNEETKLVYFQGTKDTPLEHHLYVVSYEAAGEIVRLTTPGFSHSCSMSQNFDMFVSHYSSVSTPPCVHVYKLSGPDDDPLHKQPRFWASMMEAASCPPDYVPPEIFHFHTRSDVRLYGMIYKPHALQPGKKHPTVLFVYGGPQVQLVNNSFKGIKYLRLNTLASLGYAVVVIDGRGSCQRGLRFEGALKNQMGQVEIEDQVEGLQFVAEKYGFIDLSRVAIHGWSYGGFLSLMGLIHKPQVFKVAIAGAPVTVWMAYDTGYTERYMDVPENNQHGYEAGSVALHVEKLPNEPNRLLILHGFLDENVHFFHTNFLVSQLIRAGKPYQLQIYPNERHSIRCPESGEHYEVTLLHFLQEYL

As a reminder, the IC50 is the concentration that gives 50% inhibition. As to `N#C[C@@H]1CCCN1C(=O)CN1CC[C@H](Nc2ccnc3ccccc23)C1` [Example 5, (S)-1-(2-((S)-3-(quinolin-4-ylamino)pyrrolidin-1-yl)acetyl)pyrrolidine-2-carbonitrile], the IC50 at recombinant human DPP7 was 294 nM; at Recombinant human FAP (setting [1]), 2.6 nM; on DPP4 (setting [2]) it was more than 1000 nM.
For `N#C[C@@H]1CCCN1C(=O)CN1CC[C@H](Nc2cncc3ccoc23)C1` [Example 23, (S)-1-(2-((S)-3-(furo[3,2-c]pyridin-7-ylamino)pyrrolidin-1-yl)acetyl)pyrrolidine-2-carbonitrile], the IC50 on recombinant human DPP7 was 951 nM; on Recombinant human FAP (setting [1]), 3.08 nM; against DPP4 (setting [2]), more than 1000 nM.
The inhibition is the percentage by which the read-out fell short of the control. Turning to `COc1ccc2occ(C(=O)N[C@H]3CCN(CC(=O)N4CCC[C@H]4C#N)C3)c2c1` [Example 46, N—((S)-1-(2-((S)-2-cyanopyrrolidin-1-yl)-2-oxoethyl)pyrrolidin-3-yl)-5-methoxybenzofuran-3-carboxamide], the IC50 on recombinant human DPP7 was 2200 nM; on Recombinant human FAP (setting [1]) it was 7.7 nM. Further, at DPP4 (read-out: hDPP4 inhibition % at 1 μM), the inhibition at 1 µM was 1.4%.
`N#C[C@@H]1CCCN1C(=O)CN1CC[C@H](Oc2ccnc3ccccc23)C1` [Example 61, (S)-1-(2-((S)-3-(quinolin-4-yloxy)pyrrolidin-1-yl)acetyl)pyrrolidine-2-carbonitrile]: the values for the half-maximal inhibitory concentration (IC50) on recombinant human DPP7, at Recombinant human FAP (setting [1]) and on DPP4 (setting [2]) were 1150 nM, 21.5 nM and more than 1000 nM, respectively.
Turning to `N#C[C@@H]1CCCN1C(=O)CN1CC[C@H](Oc2cccc3ncccc23)C1` [Example 66, (S)-1-(2-((S)-3-(quinolin-5-yloxy)pyrrolidin-1-yl)acetyl)pyrrolidine-2-carbonitrile], the IC50 is 6390 nM at recombinant human DPP7, 5.48 nM on Recombinant human FAP (setting [1]) and more than 1000 nM at DPP4 (setting [2]).
As for `N#C[C@@H]1CCCN1C(=O)CN1CC[C@H](Oc2ccnc3c(C(F)(F)F)cccc23)C1` [Example 95, (S)-1-(2-((S)-3-((8-(trifluoromethyl)quinolin-4-yl)oxy)pyrrolidin-1-yl)acetyl)pyrrolidine-2-carbonitrile], the IC50 on recombinant human DPP7 is 4740 nM; at Recombinant human FAP (setting [1]), 3.3 nM; on DPP4 (setting [2]), more than 1000 nM. Also, the “DPP9 inhibition % at 1 μM” value at recombinant human DPP9 was “No inhibition**”.
`N#C[C@@H]1CCCN1C(=O)CN1CCC(Nc2cccc3ncccc23)CC1` [Example 110, (S)-1-(2-(4-(quinolin-5-ylamino)piperidin-1-yl)acetyl)pyrrolidine-2-carbonitrile]: the IC50 at recombinant human DPP7 was 500 nM; at Recombinant human FAP (setting [1]), 2.2 nM; at DPP4 (setting [2]), more than 1000 nM.
For `COc1ccc2nccc(OC3CCN(CC(=O)N4C[C@@H](F)C[C@H]4C#N)CC3)c2c1` [Example 128, (2S,4S)-4-fluoro-1-(2-(4-((6-methoxyquinolin-4-yl)oxy)piperidin-1-yl)acetyl)pyrrolidine-2-carbonitrile], the IC50 at recombinant human DPP7 is 5900 nM; on Recombinant human FAP (setting [1]), 0.78 nM; on DPP4 (setting [2]), more than 10000 nM.
For `COc1ccc2cc(N(C)[C@H]3CCN(CC(=O)N4CCC[C@H]4C#N)C3)cnc2c1` [Example 153, (S)-1-(2-((S)-3-((7-methoxyquinolin-3-yl)(methyl)amino)pyrrolidin-1-yl)acetyl)pyrrolidine-2-carbonitrile], the IC50 at recombinant human DPP7 was 3120 nM; on Recombinant human FAP (setting [1]), 3.4 nM.
On to `N#C[C@@H]1C[C@H](F)CN1C(=O)CN1CC[C@H](Nc2ccc3cccnc3c2)C1` [Example 251, (2S,4S)-4-fluoro-1-[2-[(3S)-3-(7-quinolylamino)pyrrolidin-1-yl]acetyl]pyrrolidine-2-carbonitrile], for which the values for the IC50 at recombinant human DPP7 (recombinant human DPP7), on Recombinant human FAP (setting [3]) and at DPP4 (recombinant human DPP4) were 199 nM, 3.1 nM and 2310 nM, respectively.
As for `CN(c1cc2ccccc2cn1)C1CCN(CC(=O)N2CCC[C@H]2C#N)CC1` [Example 321, (2S)-1-[2-[4-[3-isoquinolyl(methyl)amino]-1-piperidyl]acetyl]pyrrolidine-2-carbonitrile], the half-maximal inhibitory concentration (IC50) on recombinant human DPP7 (recombinant human DPP7) is 10500 nM; at Recombinant human FAP (setting [3]) it was 8.8 nM; on DPP4 (recombinant human DPP4) it was more than 10000 nM.
As for `N#Cc1ccc2c(NC3CCN(CC(=O)N4C[C@@H](F)C[C@H]4C#N)CC3)cccc2n1` [Example 335, 5-[[1-[2-oxo-2-[(2S,4S)-2-cyano-4-fluoro-pyrrolidin-1-yl]ethyl]-4-piperidyl]amino]quinoline-2-carbonitrile], the IC50 came to 5.9 nM on Recombinant human FAP (setting [3]) and 7330 nM on DPP4 (recombinant human DPP4).
`N#C[C@@H]1C[C@H](F)CN1C(=O)CN1CCC(Nc2ccc3cnccc3c2)CC1` [Example 341, (2S,4S)-4-fluoro-1-[2-[4-(6-isoquinolylamino)-1-piperidyl]acetyl]pyrrolidine-2-carbonitrile]: the IC50 on Recombinant human FAP (setting [3]) is 22.7 nM; at DPP4 (recombinant human DPP4), more than 10000 nM.
`N#C[C@@H]1C[C@H](F)CN1C(=O)CN1CCC(Oc2cccc3ncc(F)cc23)CC1` [Example 416, (2S,4S)-4-fluoro-1-[2-[4-[(3-fluoro-5-quinolyl)oxy]-1-piperidyl]acetyl]pyrrolidine-2-carbonitrile]: the IC50 was 2.3 nM on Recombinant human FAP (setting [3]) and 6840 nM on DPP4 (recombinant human DPP4).
Turning to `N#C[C@@H]1C[C@H](F)CN1C(=O)CN1CCC(Oc2ccc(Cl)c3ncccc23)CC1` [Example 418, (2S,4S)-1-[2-[4-[(8-chloro-5-quinolyl)oxy]-1-piperidyl]acetyl]-4-fluoro-pyrrolidine-2-carbonitrile], the IC50 came to 3.7 nM at Recombinant human FAP (setting [3]) and 4670 nM at DPP4 (recombinant human DPP4).
